The values that follow are results of earlier work, collected in patent publication EP3854219A1, “EDIBLE AND WATER-SOLUBLE CHEWABLE TOY FOR ANIMALS, IN PARTICULAR FOR THE RELEASE OF ACTIVE INGREDIENTS” (New Project S.r.l., priority 2020, dated 2021).

One may read the LD50 as the dose expected to kill half of the subjects tested.

The series relates to rats. Conditions: oral ingestion.

Structures are written as SMILES.

For the molecule `CO` [methanol], the LD50 is on record as 5628 mg/kg.
